Results on 24 compounds are retold here after patent US11912682B2, “Isoindolinone compounds” (Monte Rosa Therapeutics, Inc., priority 2021, dated 2024).

One may read the DC50 as the concentration giving 50% degradation.

Sequence of GSPT1 (P15170 whole entry): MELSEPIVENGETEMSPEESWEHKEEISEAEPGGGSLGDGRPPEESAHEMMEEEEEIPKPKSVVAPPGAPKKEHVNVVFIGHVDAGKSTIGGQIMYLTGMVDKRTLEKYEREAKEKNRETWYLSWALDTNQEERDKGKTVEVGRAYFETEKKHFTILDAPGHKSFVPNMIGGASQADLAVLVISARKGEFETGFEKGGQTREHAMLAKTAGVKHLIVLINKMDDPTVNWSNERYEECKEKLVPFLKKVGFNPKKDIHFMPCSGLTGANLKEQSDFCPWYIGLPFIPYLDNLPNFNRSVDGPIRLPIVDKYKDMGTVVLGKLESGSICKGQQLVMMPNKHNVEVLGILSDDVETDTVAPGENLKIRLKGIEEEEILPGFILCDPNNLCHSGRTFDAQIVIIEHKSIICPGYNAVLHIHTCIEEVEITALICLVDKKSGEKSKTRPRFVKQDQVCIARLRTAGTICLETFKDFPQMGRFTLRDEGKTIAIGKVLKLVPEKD
Sequence of GSPT1 (Q96SW2 whole entry): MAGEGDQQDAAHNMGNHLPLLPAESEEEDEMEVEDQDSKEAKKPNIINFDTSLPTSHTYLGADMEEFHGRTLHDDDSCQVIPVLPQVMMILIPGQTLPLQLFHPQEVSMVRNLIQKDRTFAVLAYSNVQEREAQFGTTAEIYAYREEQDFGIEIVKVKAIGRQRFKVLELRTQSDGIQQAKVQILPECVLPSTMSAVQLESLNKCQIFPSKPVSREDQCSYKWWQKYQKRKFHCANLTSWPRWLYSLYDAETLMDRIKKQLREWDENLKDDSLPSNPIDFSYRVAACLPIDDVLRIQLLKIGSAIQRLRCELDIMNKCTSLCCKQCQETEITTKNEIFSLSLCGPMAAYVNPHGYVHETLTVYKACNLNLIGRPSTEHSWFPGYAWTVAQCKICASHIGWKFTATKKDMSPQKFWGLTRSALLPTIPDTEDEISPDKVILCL
Sequence of GSPT1 (Q16531 2-1140 partner): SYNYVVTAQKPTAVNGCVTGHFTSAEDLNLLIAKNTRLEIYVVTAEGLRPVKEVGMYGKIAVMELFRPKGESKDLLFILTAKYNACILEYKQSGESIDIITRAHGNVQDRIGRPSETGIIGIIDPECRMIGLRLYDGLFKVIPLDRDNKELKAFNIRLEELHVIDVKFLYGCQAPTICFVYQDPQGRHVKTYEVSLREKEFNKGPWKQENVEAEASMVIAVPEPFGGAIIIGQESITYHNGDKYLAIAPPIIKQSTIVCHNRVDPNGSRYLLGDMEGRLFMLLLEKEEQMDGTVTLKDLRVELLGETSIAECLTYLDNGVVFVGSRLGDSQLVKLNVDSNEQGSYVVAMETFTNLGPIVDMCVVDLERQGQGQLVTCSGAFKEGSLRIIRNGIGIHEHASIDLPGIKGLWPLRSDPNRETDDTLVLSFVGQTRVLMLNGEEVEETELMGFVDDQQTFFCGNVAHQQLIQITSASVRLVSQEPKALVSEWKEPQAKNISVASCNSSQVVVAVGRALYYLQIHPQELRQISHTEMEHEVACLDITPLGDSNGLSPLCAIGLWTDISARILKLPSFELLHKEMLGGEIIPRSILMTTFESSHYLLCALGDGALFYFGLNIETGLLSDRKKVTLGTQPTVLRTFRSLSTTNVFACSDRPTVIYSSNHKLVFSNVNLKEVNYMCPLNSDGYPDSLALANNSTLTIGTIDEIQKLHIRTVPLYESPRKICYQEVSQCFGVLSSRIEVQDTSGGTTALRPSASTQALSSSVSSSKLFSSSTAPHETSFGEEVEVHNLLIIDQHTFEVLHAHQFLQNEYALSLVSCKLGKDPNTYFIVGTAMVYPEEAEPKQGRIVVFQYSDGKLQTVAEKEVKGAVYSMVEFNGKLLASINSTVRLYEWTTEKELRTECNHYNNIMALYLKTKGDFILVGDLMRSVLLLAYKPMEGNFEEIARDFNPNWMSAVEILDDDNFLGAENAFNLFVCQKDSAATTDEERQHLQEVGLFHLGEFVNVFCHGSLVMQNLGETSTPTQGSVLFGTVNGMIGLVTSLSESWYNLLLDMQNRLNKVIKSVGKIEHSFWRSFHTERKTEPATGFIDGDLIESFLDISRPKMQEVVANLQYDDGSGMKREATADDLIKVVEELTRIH

This test concerns the target GSPT1 (Homo sapiens (Human), UniProt P15170+Q96SW2). Kind of test: immunofluorescence assay for GSPT1 degradation in CAL-51 cells (Example 10). The format is cell-based. The following applies: CAL-51 cells, 6 h; read-out: IF Class (GSPT1 degradation DC50). How it is done:
The representative compounds were tested in an immunofluorescence assay for their activity to degrade GSPT1. […] Compounds were stored at 10 mM DMSO stocks. […] Cells were subsequently rinsed with PBS and fixed in 10% Formalin solution (50 μl, Sigma HT5011)) for 20 mins at room temperature. […] Following three further PBS washes, 50 μL blocking buffer (1% BSA, Sigma A4503, in PBS) was added for 45 min for signal-to noise reduction. Primary antibody (human GSPT1, Sigma HPA052488) was diluted in blocking buffer (dil.1/300, 35 μL/well) and incubated with the cells overnight at 4° C. […] After three final PBS washes, samples were conserved in 100 μL PBS in the dark, until measurement. Image acquisition was performed on the Operetta High-Content Imager (Perkin-Elmer). […] For the determination of GSPT1 DC50 values, a custom algorithm implemented in the PerkinElmer image analysis software Harmony-Acapella® was developed. After user-defined setting of adjustment parameters, the analysis was run identically without human intervention for all image fields. DAPI staining of the nuclei was used to determine the location of cells using standard nuclei detection modules. Segmentation artifacts were removed by threshold-based filters for area, roundness and intensity. The outline of the cells was determined analogously from the sum of the normalized, smoothed DAPI and Actin channel, starting from each nucleus. […] GSPT1 degradation (DC50) was calculated after normalization to controls and data import in CDD vault Database, using non-linear regression.
As for `CC(C)(O)c1ccc(NC(=O)OCc2ccc3c(c2)C(=O)N(C2CCC(=O)NC2=O)C3)cn1` (stereo not drawn) [Compound 199, (2-(2,6-dioxopiperidin-3-yl)-3-oxoisoindolin-5-yl)methyl (6-(2-hydroxypropan-2-yl)pyridin-3-yl)carbamate], the 50% degradation concentration (DC50) was > 300 nM. Next, `O=C1CCC(N2Cc3ccc(COC(=O)Nc4cc(OC(F)(F)F)c(F)cc4F)cc3C2=O)C(=O)N1` (stereo not drawn) [Compound 200, (2-(2,6-dioxopiperidin-3-yl)-3-oxoisoindolin-5-yl)methyl (2,4-difluoro-5-(trifluoromethoxy)phenyl)carbamate]: 30 to 300 nM; `Cc1cc(F)c(NC(=O)OCc2ccc3c(c2)C(=O)N(C2CCC(=O)NC2=O)C3)cc1OC(F)F` (stereo not drawn) [Compound 201, (2-(2,6-dioxopiperidin-3-yl)-3-oxoisoindolin-5-yl) methyl (5-(difluoromethoxy)-2-fluoro-4-methylphenyl)carbamate]: 30 to 300 nM. In the case of `O=C1CCC(N2Cc3ccc(COC(=O)NC45CC(CF)(C4)C5)cc3C2=O)C(=O)N1` (stereo not drawn) [Compound 202, (2-(2,6-dioxopiperidin-3-yl)-3-oxoisoindolin-5-yl)methyl (3-(fluoromethyl)bicyclo[1.1.1]pentan-1-yl) carbamate], the DC50 was > 300 nM. For `COC(=O)C12CC(NC(=O)OCc3ccc4c(c3)C(=O)N(C3CCC(=O)NC3=O)C4)(C1)C2` (stereo not drawn) [Compound 203, methyl 3-((((2-(2,6-dioxopiperidin-3-yl)-3-oxoisoindolin-5-yl)methoxy)carbonyl)amino)bicyclo[1.1.1]pentane-1-carboxylate], the half-maximal degradation concentration (DC50) is > 300 nM. Next, `Cc1cc(F)c(NC(=O)OCc2ccc3c(c2)C(=O)N(C2CCC(=O)NC2=O)C3)cc1OC(F)(F)F` (stereo not drawn) [Compound 204, (2-(2,6-dioxopiperidin-3-yl)-3-oxoisoindolin-5-yl) methyl (2-fluoro-4-methyl-5-(trifluoromethoxy)phenyl)carbamate]: 30 to 300 nM; `O=C1CCC(N2Cc3ccc(COC(=O)Nc4cc(F)c(OC(F)F)c(F)c4)cc3C2=O)C(=O)N1` (stereo not drawn) [Compound 206, (2-(2,6-dioxopiperidin-3-yl)-3-oxoisoindolin-5-yl) methyl (4-(difluoromethoxy)-3,5-difluorophenyl)carbamate]: 30 to 300 nM. Take `O=C1CCC(N2Cc3ccc(COC(=O)Nc4cc(C5CC5)ccc4F)cc3C2=O)C(=O)N1` (stereo not drawn) [Compound 207, (2-(2,6-dioxopiperidin-3-yl)-3-oxoisoindolin-5-yl)methyl (5-cyclopropyl-2-fluorophenyl) carbamate]: the half-maximal degradation concentration (DC50) lay within 30 to 300 nM. Next, `Cc1cc(F)c(NC(=O)OCc2ccc3c(c2)C(=O)N(C2CCC(=O)NC2=O)C3)cc1C` (stereo not drawn) [Compound 208, (2-(2,6-dioxopiperidin-3-yl)-3-oxoisoindolin-5-yl)methyl (2-fluoro-4,5-dimethylphenyl)carbamate]: > 300 nM; `O=C1CCC(N2Cc3ccc(COC(=O)Nc4ccc(C(O)C(F)(F)F)cc4)cc3C2=O)C(=O)N1` (stereo not drawn) [Compound 209, (2-(2,6-dioxopiperidin-3-yl)-3-oxoisoindolin-5-yl)methyl (4-(2,2,2-trifluoro-1-hydroxyethyl)phenyl) carbamate]: > 300 nM; `Cc1cc(F)c(NC(=O)OCc2ccc3c(c2)C(=O)N(C2CCC(=O)NC2=O)C3)c(F)c1Cl` (stereo not drawn) [Compound 211, (2-(2,6-dioxopiperidin-3-yl)-3-oxoisoindolin-5-yl)methyl (3-chloro-2,6-difluoro-4-methylphenyl)carbamate]: 30 to 300 nM. Regarding `O=C1CCC(N2Cc3ccc(COC(=O)Nc4cc(F)c5c(c4)CCO5)cc3C2=O)C(=O)N1` (stereo not drawn) [Compound 212, (2-(2,6-dioxopiperidin-3-yl)-3-oxoisoindolin-5-yl)methyl (7-fluoro-2,3-dihydrobenzofuran-5-yl)carbamate], the DC50 was < 30 nM. Next, `Cc1cc(F)c(NC(=O)OCc2ccc3c(c2)C(=O)N(C2CCC(=O)NC2=O)C3)cc1F` (stereo not drawn) [Compound 213, (2-(2,6-dioxopiperidin-3-yl)-3-oxoisoindolin-5-yl)methyl (2,5-difluoro-4-methylphenyl)carbamate]: > 300 nM. Consider `O=C1CCC(N2Cc3ccc(COC(=O)NC45CC(N6CCOCC6)(C4)C5)cc3C2=O)C(=O)N1` (stereo not drawn) [Compound 215, (2-(2,6-dioxopiperidin-3-yl)-3-oxoisoindolin-5-yl)methyl (3-morpholinobicyclo[1.1.1]pentan-1-yl)carbamate], for which the DC50 was > 300 nM.

Consider `O=C1CCC(N2Cc3ccc(COC(=O)Nc4cccc(C5CC5)c4)cc3C2=O)C(=O)N1` (stereo not drawn) [Compound 216, (2-(2,6-dioxopiperidin-3-yl)-3-oxoisoindolin-5-yl)methyl (3-cyclopropylphenyl)carbamate], for which the DC50 was < 30 nM. Regarding `CC(C)c1cccc(NC(=O)OCc2ccc3c(c2)C(=O)N(C2CCC(=O)NC2=O)C3)c1` (stereo not drawn) [Compound 217, (2-(2,6-dioxopiperidin-3-yl)-3-oxoisoindolin-5-yl)methyl (3-isopropylphenyl)carbamate], the DC50 is < 30 nM. Next, `O=C1CCC(N2Cc3ccc(COC(=O)NC45CC(C(F)F)(C4)C5)cc3C2=O)C(=O)N1` (stereo not drawn) [Compound 219, (2-(2,6-dioxopiperidin-3-yl)-3-oxoisoindolin-5-yl)methyl (3-(difluoromethyl)bicyclo[1.1.1]pentan-1-yl) carbamate]: > 300 nM. Regarding `CCc1cccc(NC(=O)OCc2ccc3c(c2)C(=O)N(C2CCC(=O)NC2=O)C3)c1` (stereo not drawn) [Compound 220, (2-(2,6-dioxopiperidin-3-yl)-3-oxoisoindolin-5-yl)methyl (3-ethylphenyl)carbamate], the DC50 was < 30 nM. As to `CC(C)Oc1ccc(F)c(NC(=O)OCc2ccc3c(c2)C(=O)N(C2CCC(=O)NC2=O)C3)c1` (stereo not drawn) [Compound 221, (2-(2,6-dioxopiperidin-3-yl)-3-oxoisoindolin-5-yl)methyl (2-fluoro-5-isopropoxyphenyl)carbamate], the 50% degradation concentration (DC50) lay in the range of 30 to 300 nM. `CC(C)(C)Oc1ccc(F)c(NC(=O)OCc2ccc3c(c2)C(=O)N(C2CCC(=O)NC2=O)C3)c1` (stereo not drawn) [Compound 222, (2-(2,6-dioxopiperidin-3-yl)-3-oxoisoindolin-5-yl)methyl (5-(tert-butoxy)-2-fluorophenyl)carbamate]: the 50% degradation concentration (DC50) lay in the range of 30 to 300 nM. As to `CCOc1ccc(F)c(NC(=O)OCc2ccc3c(c2)C(=O)N(C2CCC(=O)NC2=O)C3)c1` (stereo not drawn) [Compound 223, (2-(2,6-dioxopiperidin-3-yl)-3-oxoisoindolin-5-yl)methyl (5-ethoxy-2-fluorophenyl)carbamate], the DC50 is > 300 nM. Regarding `O=C1CCC(N2Cc3ccc(COC(=O)NC45C6C7C4C4C5C6C74c4ccccc4)cc3C2=O)C(=O)N1` (stereo not drawn) [Compound 225, (2-(2,6-dioxopiperidin-3-yl)-3-oxoisoindolin-5-yl)methyl (4-phenylcuban-1-yl)carbamate], the DC50 was > 300 nM. Next, `CCCOc1ccc(F)c(NC(=O)OCc2ccc3c(c2)C(=O)N(C2CCC(=O)NC2=O)C3)c1` (stereo not drawn) [Compound 226, (2-(2,6-dioxopiperidin-3-yl)-3-oxoisoindolin-5-yl)methyl (2-fluoro-5-propoxyphenyl)carbamate]: 30 to 300 nM; `O=C1CCC(N2Cc3ccc(COC(=O)Nc4cc(OC(F)F)c(F)cn4)cc3C2=O)C(=O)N1` (stereo not drawn) [Compound 227, (2-(2,6-dioxopiperidin-3-yl)-3-oxoisoindolin-5-yl)methyl (4-(difluoromethoxy)-5-fluoropyridin-2-yl)carbamate]: > 300 nM.
